From patent publication US7799346B2, “Method of treatment directed to agent retention in biological tissues” (Advanced Cardiovascular Systems, Inc., priority 1999, dated 2010)

Legend:
[1] = cited from earlier work; for pKa NH3: aminium group NH3+; for pKa CO2H: carboxyl group
[2] = In-vitro agent retention in perfused excised vessel, fluorescent intensity of tissue sections; format: in vitro ADME, porcine
Excerpt: The target tissue is a live excised porcine carotid. The tissue sample is perfused with buffered saline of Kerbs-henseleit Buffer (Sigma Catalog #K3753) at physiological temperature and pressure. Thereafter, the excised vessels are received in buffered saline solution. The artery segments are sutured to tubing using plastic nipple adapters and loaded into a perfusion chamber. The segments are stretched to their original lengths. In the perfusion chamber, the vessels are allowed to equilibrate for 10 minutes at 37° C. the hydrostatic pressure head above the chamber is about 100 cm.
A microporous balloon catheter is inserted through the rotating hemostatic valve (RHV) and secured. The agent used is […]. The agent is delivered through the catheter at 3.5 atm pressure for 2 minutes in both control and test samples. The amount of agent delivered is about 3 ml. Immediately following agent introduction, a barrier of Poly(amine) Barrier is delivered through the catheter in only the test samples for about 2 minutes. The total amount of barrier introduced is about 3 ml.
The test and control vessels are flushed with the buffer solution for about 15 minutes. The proximal and distal positions of the vessels are marked and the vessels are removed from the perfusion chamber and placed into a bath containing liquid nitrogen. The vessels are mounted in paraffin and sliced in 10 micron thin sections at the proximal, mid and distal portions.
The slides are observed using a fluorescent microscope. The fluorescent intensities of the sections are recorded, where fluorescence represents the presence of agent in the tissue. The resulting intensities over the length of the tissue sections are represented in the graphs in FIG. 5A showing the proximal section and FIG. 5B showing the mid section. […] The average intensity of agent in the test sample is about 1083, whereas the control intensity is about 749. Thus, a 44% increase in agent occurs with the use of the barrier. […]

| Compound | pKa NH3 [1] | pKa CO2H [1] | fluorescent intensity of agent in tissue section, Distal [2] | fluorescent intensity of agent in tissue section, Mid [2] | fluorescent intensity of agent in tissue section, Proximal [2] |
| --- | --- | --- | --- | --- | --- |
| N[C@@H](CSSC[C@H](N)C(=O)O)C(=O)O [Cystine] | 7.9 | 1.6 |  |  |  |
| O=C(O)[C@@H]1C[C@@H](O)CN1 [Hydroxyproline] | 9.7 | 1.9 |  |  |  |
| CSCC[C@H](N)C(=O)O [Methionine] | 9.9 |  |  |  |  |
| cascade blue |  |  | 747 | 831 | 669 |
